The results in this text go back to ChEMBL document CHEMBL5252509, “In depth analysis of kinase cross screening data to identify chemical starting points for inhibition of the Nek family of kinases” (Medchemcomm, 2018).

Several values for one entry are separate records, joined by “and”; a condition that tells them apart may be missing. Equal entries are not always repeated.

The inhibition is the relative decrease from the control value, in per cent. Lower therefore signals a weak effect.

Experiment [1] has as its target T1, Serine/threonine-protein kinase Nek9 (Homo sapiens) (UniProt Q8TD19).
T1 sequence (whole entry): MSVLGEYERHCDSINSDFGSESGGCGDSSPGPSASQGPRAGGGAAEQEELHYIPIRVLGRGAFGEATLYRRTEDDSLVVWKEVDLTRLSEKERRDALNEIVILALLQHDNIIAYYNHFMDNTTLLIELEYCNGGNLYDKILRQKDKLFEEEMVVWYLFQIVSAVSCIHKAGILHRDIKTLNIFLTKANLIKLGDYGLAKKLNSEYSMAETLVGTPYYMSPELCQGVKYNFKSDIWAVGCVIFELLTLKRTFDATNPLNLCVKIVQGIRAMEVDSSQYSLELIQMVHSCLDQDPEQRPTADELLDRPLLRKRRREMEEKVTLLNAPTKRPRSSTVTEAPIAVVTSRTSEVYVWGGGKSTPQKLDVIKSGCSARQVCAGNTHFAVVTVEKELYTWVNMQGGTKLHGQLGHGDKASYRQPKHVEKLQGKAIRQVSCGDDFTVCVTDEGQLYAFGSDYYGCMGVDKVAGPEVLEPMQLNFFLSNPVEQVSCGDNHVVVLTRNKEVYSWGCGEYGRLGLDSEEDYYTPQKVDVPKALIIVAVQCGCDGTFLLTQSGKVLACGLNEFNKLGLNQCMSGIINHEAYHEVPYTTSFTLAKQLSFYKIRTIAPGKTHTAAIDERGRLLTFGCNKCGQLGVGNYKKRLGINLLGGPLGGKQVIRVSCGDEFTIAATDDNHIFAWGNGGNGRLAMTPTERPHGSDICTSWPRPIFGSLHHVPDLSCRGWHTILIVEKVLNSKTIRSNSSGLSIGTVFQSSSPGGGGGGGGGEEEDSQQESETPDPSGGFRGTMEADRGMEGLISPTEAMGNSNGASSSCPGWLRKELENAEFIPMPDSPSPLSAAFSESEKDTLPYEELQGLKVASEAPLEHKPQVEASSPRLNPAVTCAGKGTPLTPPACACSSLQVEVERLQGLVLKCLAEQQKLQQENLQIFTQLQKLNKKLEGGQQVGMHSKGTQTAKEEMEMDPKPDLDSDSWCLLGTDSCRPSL
Briefly: Inhibition of NEK9 (unknown origin) at 1 uM relative to control.

The target of experiment [2] is T2, Serine/threonine-protein kinase Nek5 (Homo sapiens) (UniProt Q6P3R8).
T2 sequence (whole entry): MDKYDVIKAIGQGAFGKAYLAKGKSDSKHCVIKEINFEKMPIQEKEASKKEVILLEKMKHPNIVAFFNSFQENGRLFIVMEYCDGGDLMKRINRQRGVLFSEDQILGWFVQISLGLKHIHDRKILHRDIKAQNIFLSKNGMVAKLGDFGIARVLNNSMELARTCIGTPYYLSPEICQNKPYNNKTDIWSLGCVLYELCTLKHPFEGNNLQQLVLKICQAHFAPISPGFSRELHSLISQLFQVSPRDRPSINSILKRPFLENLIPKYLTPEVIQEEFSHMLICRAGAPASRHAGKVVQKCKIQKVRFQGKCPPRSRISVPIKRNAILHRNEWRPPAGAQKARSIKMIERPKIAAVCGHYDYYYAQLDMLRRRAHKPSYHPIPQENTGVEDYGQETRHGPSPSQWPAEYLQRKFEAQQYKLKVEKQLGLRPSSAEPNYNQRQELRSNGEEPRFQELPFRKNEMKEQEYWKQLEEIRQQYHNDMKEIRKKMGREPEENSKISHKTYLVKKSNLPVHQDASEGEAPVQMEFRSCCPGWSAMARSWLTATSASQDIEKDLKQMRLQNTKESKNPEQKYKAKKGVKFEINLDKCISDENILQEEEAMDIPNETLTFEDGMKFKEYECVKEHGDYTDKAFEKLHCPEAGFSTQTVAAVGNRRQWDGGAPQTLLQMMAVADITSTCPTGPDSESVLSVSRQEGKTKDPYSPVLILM
Briefly: Inhibition of NEK5 (unknown origin) at 1 uM relative to control.

Experiment [3] has as its target Serine/threonine-protein kinase Nek6 (Homo sapiens) (UniProt Q9HC98). Briefly: Inhibition of NEK6 (unknown origin) at 1 uM relative to control.
The target in experiment [4] is T3, Serine/threonine-protein kinase Nek2 (Homo sapiens) (UniProt P51955).
T3 sequence (whole entry): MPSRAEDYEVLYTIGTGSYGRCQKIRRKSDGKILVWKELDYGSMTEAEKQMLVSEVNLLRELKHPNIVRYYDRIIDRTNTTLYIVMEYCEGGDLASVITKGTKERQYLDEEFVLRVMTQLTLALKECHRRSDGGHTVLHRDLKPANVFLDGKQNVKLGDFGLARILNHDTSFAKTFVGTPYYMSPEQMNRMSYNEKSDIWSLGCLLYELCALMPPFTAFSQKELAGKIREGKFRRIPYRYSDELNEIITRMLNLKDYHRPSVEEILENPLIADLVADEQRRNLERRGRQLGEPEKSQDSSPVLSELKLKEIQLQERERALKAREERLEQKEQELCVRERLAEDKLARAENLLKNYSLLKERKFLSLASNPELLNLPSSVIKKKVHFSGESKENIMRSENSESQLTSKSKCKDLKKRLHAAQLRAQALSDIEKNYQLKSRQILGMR
Briefly: Inhibition of NEK2 (unknown origin) at 1 uM relative to control.

Experiment [5] addresses T4, Serine/threonine-protein kinase Nek3 (Homo sapiens) (UniProt P51956).
T4 sequence (whole entry): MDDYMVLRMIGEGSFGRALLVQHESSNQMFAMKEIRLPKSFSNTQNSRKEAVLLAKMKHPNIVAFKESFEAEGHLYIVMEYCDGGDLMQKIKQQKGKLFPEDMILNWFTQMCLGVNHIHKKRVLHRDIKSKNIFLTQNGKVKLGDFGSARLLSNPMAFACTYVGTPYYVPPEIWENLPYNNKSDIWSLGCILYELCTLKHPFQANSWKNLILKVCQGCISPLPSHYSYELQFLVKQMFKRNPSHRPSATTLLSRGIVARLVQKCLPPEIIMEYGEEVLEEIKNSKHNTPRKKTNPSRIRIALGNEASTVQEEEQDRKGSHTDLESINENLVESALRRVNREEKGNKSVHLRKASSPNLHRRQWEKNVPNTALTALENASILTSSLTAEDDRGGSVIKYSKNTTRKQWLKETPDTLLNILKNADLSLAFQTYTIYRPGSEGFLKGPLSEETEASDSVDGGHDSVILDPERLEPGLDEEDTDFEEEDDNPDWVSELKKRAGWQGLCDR
Briefly: Inhibition of NEK3 (unknown origin) at 1 uM relative to control.

In experiment [6] the target is Serine/threonine-protein kinase Nek7 (Homo sapiens) (UniProt Q8TDX7). Briefly: Inhibition of NEK7 (unknown origin) at 1 uM relative to control.
Serine/threonine-protein kinase Nek7 (Homo sapiens), sequence (Q8TDX7 whole entry, looked up): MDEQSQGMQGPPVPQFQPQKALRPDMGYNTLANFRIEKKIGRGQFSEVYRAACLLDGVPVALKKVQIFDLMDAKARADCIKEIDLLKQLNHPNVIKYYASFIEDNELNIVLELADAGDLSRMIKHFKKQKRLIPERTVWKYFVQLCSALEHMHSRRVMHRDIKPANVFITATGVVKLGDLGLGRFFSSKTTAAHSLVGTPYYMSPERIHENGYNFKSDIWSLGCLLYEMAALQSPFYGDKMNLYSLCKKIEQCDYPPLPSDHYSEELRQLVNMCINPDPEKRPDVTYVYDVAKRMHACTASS

Serine/threonine-protein kinase Nek6 (Homo sapiens), sequence (Q9HC98 whole entry): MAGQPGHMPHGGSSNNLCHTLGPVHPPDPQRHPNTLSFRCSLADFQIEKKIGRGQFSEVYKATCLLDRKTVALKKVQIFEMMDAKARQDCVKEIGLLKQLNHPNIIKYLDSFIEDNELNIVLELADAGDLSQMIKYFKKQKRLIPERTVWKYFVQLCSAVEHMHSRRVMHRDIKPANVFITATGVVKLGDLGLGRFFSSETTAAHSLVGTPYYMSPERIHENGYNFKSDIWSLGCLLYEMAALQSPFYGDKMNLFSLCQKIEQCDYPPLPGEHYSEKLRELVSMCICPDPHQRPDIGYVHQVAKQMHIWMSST

Regarding `Cn1cc(-c2ccc3c(c2)CCN3C(=O)Cc2cccc(C(F)(F)F)c2)c2c(N)ncnc21`, the inhibition came to 8% in experiment [1]; 0% in experiment [2]; 0% in experiment [3]; 15% in experiment [4]; 0% in experiment [5]; 11% in experiment [6].
Consider `COc1cccc(C2=C(Nc3cccc(Cl)c3)C(=O)NC2=O)c1`, for which the inhibition in experiment [1] was 1%; in experiment [2], 0%; in experiment [3], 0%; in experiment [4], 13%; in experiment [5] it was 5%; in experiment [6], 5%.
`CC(C)c1nc(-c2cccc(NS(=O)(=O)c3c(F)cccc3F)c2F)c(-c2ccnc(Nc3ccc(N4CCOCC4)nc3)n2)s1`: the inhibition in experiment [1] worked out at 6.4%; in experiment [2], 24%; in experiment [3] it was 0.9%; in experiment [4], 0.9%; in experiment [5], 99%; in experiment [6], 7.1%.
Consider `Cc1ccc(CC(=O)N2CCc3cc(-c4cn(C)c5ncnc(N)c45)ccc32)cc1`, for which the inhibition was found to be 20% in experiment [1]; 45% in experiment [2]; 19% in experiment [3]; 96.9% in experiment [4]; 7% in experiment [5]; 0% in experiment [6].
As to `Nc1nccc2scc(-c3ccc4c(c3)CCN4C(=O)Cc3cc(F)ccc3F)c12`, the inhibition in experiment [1] is 4%; in experiment [2], 6%; in experiment [3], 0%; in experiment [4], 7%; in experiment [5] it was 0%; in experiment [6], 0%.
Take `COc1cc(Nc2ncc3c(C)nc(-c4cc5ccccc5[nH]4)n3n2)cc(OC)c1OC`: the inhibition was 70% in experiment [1]; 93.1% and 99% in experiment [2]; 70% in experiment [3]; 70% in experiment [4]; 89% in experiment [5]; 70% in experiment [6].
For the compound `CC(C)c1nc(-c2cccc(NS(=O)(=O)c3ccccc3)c2)c(-c2ccnc(Nc3ccc4c(c3)CN(C)CC4)n2)s1`, the inhibition was 49% in experiment [1]; 100% in experiment [2]; 100% in experiment [3]; 66% in experiment [4]; 73% in experiment [5]; 100% in experiment [6].
Consider `CS(=O)(=O)Nc1ccc(-c2ccnc3[nH]ccc23)cc1`, for which the inhibition in experiment [1] was determined as 14%; in experiment [2] it was 2%; in experiment [3], 0%; in experiment [4] it was 0%; in experiment [5] it was 4%; in experiment [6], 10%.
Turning to `Cn1cc(-c2ccc3c(c2)CCN3C(=O)Cc2cccc(F)c2)c2c(N)ncnc21`, the inhibition in experiment [1] was 0%; in experiment [2], 28%; in experiment [3], 0%; in experiment [4] it was 73%; in experiment [5], 11%; in experiment [6], 0%.
Regarding `Nc1ncc(-c2cn[nH]c2)c2scc(-c3ccc4c(c3)CCN4C(=O)Cc3ccccc3)c12`, the inhibition in experiment [1] was determined as 0%; in experiment [2] it was 21%; in experiment [3] it was 3%; in experiment [4] it was 85%; in experiment [5], 0%; in experiment [6], 0%.
As for `O=C1NC(=O)C(c2ccccc2Cl)=C1Nc1cccc(Cl)c1`, the inhibition in experiment [1] was 20%; in experiment [2] it was 7%; in experiment [3] it was 1%; in experiment [4], 10%; in experiment [5], 56%; in experiment [6], 16%.
Take `Cn1cc(-c2ccc3c(c2)CCN3C(=O)Cc2cccc(Cl)c2)c2c(N)ncnc21`: the inhibition in experiment [1] came to 18%; in experiment [2] it was 32%; in experiment [3], 11%; in experiment [4] it was 66%; in experiment [5], 1%; in experiment [6], 0%.
